Our source for the MIC values is paper PMC6339655 (International Journal of Nanomedicine, 2019).

The test system of this assay is C. albicans (ATCC-90028). Kind of assay: MIC by colony-forming assay. It is filed as cell-based. The following applies: Candida albicans, ATCC90028, 48 h.

Structures are written as SMILES. Converted amounts (≈) assume the structure as drawn.

Turning to `C[C@@H]1C/C=C/C=C/C=C/C=C/[C@H](O[C@@H]2O[C@H](C)[C@@H](O)[C@H](N)[C@@H]2O)C[C@@H]2O[C@](O)(C[C@@H](O)C[C@H]3O[C@@H]3/C=C/C(=O)O1)C[C@H](O)[C@H]2C(=O)O` [natamycin], the lowest concentration to inhibit growth (MIC) was 64 µg/mL (≈ 96.1 µM).
